“And” between values parts separate entries of the source, which are not always exact repeats. Equal entries are not always repeated.
Columns and labels:
GSK3β = target: T1, GSK3β (Homo sapiens, UniProt P49841); test: GSK3β inhibition, luminescence Kinase-Glo assay; format: biochemical; conditions: for IC50: four concentrations 0.1, 1, 10, 30 μM, ATP 1 μM, 1 h; for Ki: calculated from IC50 by Cheng-Prusoff equation, Km ATP 2.345 µM, read-out: Ki (apparent equilibrium dissociation constant)
T1 construct: purchased Promega V1991
T1 sequence (P49841 whole entry): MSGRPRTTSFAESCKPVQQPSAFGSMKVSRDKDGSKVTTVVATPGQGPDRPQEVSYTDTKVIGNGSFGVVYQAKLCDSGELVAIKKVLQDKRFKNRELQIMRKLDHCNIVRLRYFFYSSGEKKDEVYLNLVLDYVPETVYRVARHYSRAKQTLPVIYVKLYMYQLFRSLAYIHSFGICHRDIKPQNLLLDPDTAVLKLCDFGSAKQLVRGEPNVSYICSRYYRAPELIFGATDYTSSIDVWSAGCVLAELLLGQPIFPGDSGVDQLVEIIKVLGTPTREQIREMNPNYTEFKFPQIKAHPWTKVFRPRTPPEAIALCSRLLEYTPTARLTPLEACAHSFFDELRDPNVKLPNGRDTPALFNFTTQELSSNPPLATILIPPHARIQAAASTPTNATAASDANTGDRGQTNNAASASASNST
Protocol: GSK3β inhibitory activity was evaluated using the method developed by Baki[66], with modifications. Compounds were dissolved in assay buffer, containing 40 mM Tris (pH 7.5), 20 mM MgCl2, 0.1 mg/ml BSA (bovine serum albumin) and 50 μM dithiothreitol (DTT) at the desired concentrations. Firstly, 10 μl of enzyme (10 ng) and 10 μl of each compound were mixed for 30 min. Then, 20 μl of a mixture of ATP (1 μM) and GSK3β peptidic substrate were added to each well. The mixture was incubated for 60 min at 30 °C. Thereafter, the remaining ATP concentration was measured with the Kinase-Glo system following instructions from the supplier. Luminescence was measured in an Orion II microplate luminometer (Berthold, Germany) as relative light units (RLU). […] IC50 values were calculated by non-linear regression analysis of individual concentration-response curves using GraphPad Prism 5.0 software (San Diego, CA, USA).
The ability of the compounds to inhibit GSK3β was evaluated using the method developed by Baki^9 with some modifications. The tested compounds were dissolved in assay buffer, containing 40 mM Tris (pH 7.5), 20 mM MgCl2, 0.1 mg/ml BSA (bovine serum albumin) and 50 µM dithiothreitol (DTT), to achieve final reaction concentrations of 0.1, 1, 10 and 30 µM. […] The GSK3β inhibition assay was performed in white 96-well plates, in duplicates. Firstly, 10 µl of enzyme (10 ng) were added to each well, followed by 10 µl of the compounds at the desired concentration. After 30 minutes, 20 µl of a mixture of ATP and GSK3β peptidic substrate were added to each well, achieving a final concentration of 1 µM of ATP and 25 of µM peptidic substrate. The mixture was incubated at 30 °C for 60 minutes. Once the reaction was finished, the remaining ATP concentration was measured by adding 40 µl/well of Kinase-Glo reagent. The luminescence was measured in an Orion II microplate luminometer (Berthold, Germany) as relative light units (RLU). The luminescence recorded is proportional to the amount of ATP present in each well.
Apparent Ki for each compound were calculated from GSK3β Km value for ATP, applying the Cheng-Prusoff equation^10,11 in its simplified form: Ki = IC50/(1+([S]/Km)), in which S refers to the ATP concentration and Km is the Michaelis constant of the substrate for GSK3β.

Nrf2 = test: Nrf2-dependent luciferase reporter assay in AREc32 cell line; format: cell-based; conditions: Arec32, 24 h, AREc32 cells, read-out: CD (concentration required to double the luciferase reporter activity)
Protocol: Thereafter, we tested the ability of the compounds to induce the Nrf2 transcription factor. We used an Nrf2-dependent luciferase reporter assay in the AREc32 cell line[45]. Cells were cultured for 24 h and then treated with increasing concentrations of compounds 5a–t (0.3, 3, 10 and 30 μM), including the known inducer sulforaphane, containing an isothiocyanate motive as positive control.
AREc32 cells were plated in 96-well white plates (2 × 10^4 cells/well). After 24 h, cells were incubated with increasing concentrations of each compound in duplicate for 24 h. AREc32 cells express constitutively the plasmid pGL-8xARE that implements 8 copies of the EpRE sequences followed by luciferase reporter gen. Therefore, Nrf2 induction is related to the activation of EpRE sequences, expressing luciferase at the same extent as EpRE sequences are activated. The Luciferase Assay System (Promega E1500), was used according to provider protocol and luminescence was quantified in an Orion II microplate luminometer (Berthold, Germany). Fold induction of luciferase activity was normalized to basal conditions. Data are expressed as CD values, expressing the concentration required to double the luciferase activity. CD values are calculated from dose-response curves generated from fold induction of control conditions vs. inducer concentration and fitted by non-linear regression and data interpolated to 2-fold induction concentration.
Breast cancer cells stably transfected to express luciferase after EpRE sequences MCF-7/AREc32 named AREc32, were kindly provided by Dr. C. Roland Wolf (University of Dundee, UK).^14 AREc32 cells were maintained in DMEM with high glucose-glutamax, supplemented with 10 % FBS, 1 % penicillin-streptomycin (10,000 units), and geneticin (0.8 mg/ml G418) at 37 °C and in a 5 % CO2- air atmosphere.^14
AREc32 cells are constitutively transfected with the pGL-8xARE luciferase reporter gene, inserted after EpRE sequences. Thus, Nrf2 translocation to the nucleus induces the activation of the EpRE sequences, expressing their target phase II antioxidant genes, and expressing luciferase at the same extent.^15 AREc32 cells were plated in 96-well white plates (2X10^4 cells/well). After 24 h, cells were incubated with increasing concentrations of each compound in duplicate for 24 h (dissolved in DMSO to give a final 0.1 % vol/vol concentration of vehicle). Each plate included non-treated cells as basal luciferase expression and tBHQ (10 µM) as positive control. TBHQ is a potent Nrf2 inducer used as control in the development of the AREc32 cells.^14 Transfected clones are selected using G418. AREc32 cells express constitutively the plasmid pGL-8xARE that implements 8 copies of the EpRE sequences followed by a luciferase reporter gene. Therefore, the induction of Nrf2 is proportional to the activation of EpRE sequences, expressing luciferase at the same extent as EpRE sequences are activated. Luciferase production is then assessed by a bioluminescence assay. The Luciferase Assay System (Promega E1500), was used according to the Promega protocol and luminescence was quantified in an Orion II microplate luminometer (Berthold, Germany). Relative Light Units (RLU) were recorded for the contents of each well. Fold induction of luciferase activity was calculated by dividing the RLU obtained for the tests wells for each treatment by the average RLU obtained for the basal conditions. Data are expressed as CD values, expressing the concentration required to double the basal luciferase activity, used to quantify the Nrf2 induction potency. CD values are calculated from dose-response curves generated from fold induction of control conditions vs. inducer concentration and fitted by non-linear regression and data interpolated to value the 2-fold induction concentration, using GraphPad Prism software (San Diego, CA, USA).

SH-SY5Y cells [1] = test: Neuroprotection against okadaic acid (tau hyperphosphorylation), MTT; format: cell-based; conditions: 1 μM, 24 h pre-incubation, 18 h co-incubation with OA 20 nM
HepG2 cells = test: Hepatotoxicity in HepG2 cell line (MTT); conditions: 24 h
Protocol: Thus, it is relevant to study the potential neurotoxicity and hepatotoxicity of the novel dual GSK3β inhibitors-Nrf2 inducers 5a–t.
(§2) Viability was measured as MTT reduction in presence of increasing concentrations of derivatives. Values are expressed as LD50 calculated from dose-response curves of four different concentrations.
HepG2 cells were cultured according to supplier indications in EMEM supplemented with 10 % heat-inactivated FBS, 100 µg/mL streptomycin and 100 units/mL penicillin. Cells were maintained at 37 °C in humidified atmosphere of 95 % air and 5 % CO2. For experimental procedures, cells were cultured in 96-well plates at density of 1x10^5 cells/well. Treatments were performed in 1% FBS medium unless other concentration was specified. Cells were used from 4 up to 13 passages.
(§3) Cells were cultured in 48-well (SH-SY5Y, 1x10^5 cells per well) or 96-well plates (HepG2, 1x10^5 cells per well) for 24 h. […] Control cells were incubated with the same concentration of DMSO (0.1 % final concentration) without any drug.

SH-SY5Y cells [2] = test: Cytotoxicity in SH-SY5Y neuroblastoma cell line (MTT); conditions: 24 h
Protocol: as §2, §3

SH-SY5Y cells [3] = test: Neuroprotection against rotenone/oligomycin A (R/O), MTT; format: cell-based; conditions: 1 μM, 24 h pre-incubation, 24 h co-incubation with rotenone/oligomycin A 30/10 μM
Protocol: Figure 5 Compounds 5a–t exert neuroprotection in in vitro models of AD. […] Then, treatments were removed and cells were co-incubated with each treatment and okadaic acid for 18 h or R/O for 24 h. Cell viability was measured by the MTT reduction assay. Values are expressed as mean ± SEM of five independent experiments in triplicate. ***p < 0.001; **p < 0.01 respect to toxic stimuli treated cells, considered as 0% of protection.
As stated in the Introduction, oxidative stress is considered one of the main causes of neuronal death in AD. Therefore, we were interested in evaluating the potential antioxidant activity of compounds 5a–t in a model of oxidative stress and energy depletion, which in turn increase cell death. For this purpose, we selected the combination of rotenone (30 μM) and oligomycin A (10 μM) (R/O) to induce neurotoxicity as a model system[23][40] to evaluate the potential neuroprotective activity of the compounds. Melatonin, a well-known antioxidant natural compound, was included as a positive control.
(§1) A pre- and co-incubation protocol was followed. Cells were pre-incubated with the corresponding compound at 1 μM in neuroblastoma cells culture medium. After 24 h, medium was removed and replaced with 1% FBS neuroblastoma culture media containing the corresponding compound (1 μM) and the toxic stimuli, the mixture of rotenone and oligomycin A (30 μM/10 μM respectively) or okadaic acid at 20 nM. Cells were co-incubated for further 24 h with the rotenone and oligomycin A solution or 18 h with the okadaic acid solution. Control cells were incubated with the same amount of DMSO without any drug. After the co-incubation period, cell viability was assessed by the MTT-reduction method.
as §1, with “A pre” for “A pre-”, “1 µM” for “1 μM”, “compound at 1 µM” for “compound (1 μM)”, “stimuli, namely a” for “stimuli, the”, “(30 µM / 10 µM” for “(30 μM/10 μM”, “drug. […]” for “drug.”
The percentage of protection was calculated as follows: the percentage of cell survival obtained with the toxic stimuli-treated cells subtracted to 100 was normalized to 100 % of cell death. The percentage of protection was obtained by subtracting the percentage of cell death in presence of the tested compound to 100%.

| Compound | IC50 (GSK3β) | EC50 (Nrf2) [µM] | Ki (GSK3β) [µM] | Percentage of protection against okadaic acid toxicity (SH-SY5Y cells [1]) | HepG2 LD50 (HepG2 cells) [µM] | SH-SY5Y LD50 (SH-SY5Y cells [2]) [µM] | Percentage of protection against R/O toxicity (SH-SY5Y cells [3]) [%] |
| --- | --- | --- | --- | --- | --- | --- | --- |
| Cc1[nH]nc2c1C(c1ccccc1)C(C#N)=C(N)O2 (stereo not shown) [Compound 5a, 6-Amino-3-methyl-4-phenyl-2,4-dihydropyrano[2,3-c]pyrazole-5-carbonitrile] | > 30 µM | 20.5 ± 3.4 |  | 27.7% | > 100 | > 100 |  |
| COc1ccccc1C1C(C#N)=C(N)Oc2n[nH]c(C)c21 (stereo not shown) [Compound 5b, 6-Amino-4-(2-methoxyphenyl)-3-methyl-2,4-dihydropyrano[2,3-c]pyrazole-5-carbonitrile] | 16.4 ± 1.8 µM | > 30 | 11.5 |  | > 100 | > 100 | 39.1 |
| COc1ccc(C2C(C#N)=C(N)Oc3n[nH]c(C)c32)cc1 (stereo not shown) [Compound 5d, 6-Amino-4-(4-methoxyphenyl)-3-methyl-2,4-dihydropyrano[2,3-c]pyrazole-5-carbonitrile] | 6.6 ± 1.7 µM | 25.3 ± 2.4 | 4.63 |  | > 100 | > 100 | 38.8 |
| Cc1ccccc1C1C(C#N)=C(N)Oc2[nH]nc(C)c21 (stereo not shown) [Compound 5e, 6-Amino-3-methyl-4-(2-methylphenyl)-2,4-dihydropyrano[2,3-c]pyrazole-5-carbonitrile] | > 30 µM | > 30 |  |  | > 100 | > 100 |  |
| Cc1cccc(C2C(C#N)=C(N)Oc3n[nH]c(C)c32)c1 (stereo not shown) [Compound 5f, 6-Amino-3-methyl-4-(3-methylphenyl)-2,4-dihydropyrano[2,3-c]pyrazole-5-carbonitrile] | 21.4 ± 4.6 µM | 14.1 ± 2.1 | 15 | over 50% | > 100 | > 100 |  |
| Cc1ccc(C2C(C#N)=C(N)Oc3[nH]nc(C)c32)cc1 (stereo not shown) [Compound 5g, 6-Amino-3-methyl-4-(4-methylphenyl)-2,4-dihydropyrano[2,3-c]pyrazole-5-carbonitrile] | 17.5 ± 1.9 µM | 25.4 ± 2.5 | 12.3 |  | > 100 | > 100 |  |
| Cc1n[nH]c2c1C(c1ccc(F)cc1)C(C#N)=C(N)O2 (stereo not shown) [Compound 5h, 6-Amino-4-(4-fluorophenyl)-3-methyl-2,4-dihydropyrano[2,3-c]pyrazole-5-carbonitrile] | 17.9 ± 1.5 µM | 14.6 ± 4 | 12.5 |  | > 100 | > 100 |  |
| Cc1n[nH]c2c1C(c1ccccc1Cl)C(C#N)=C(N)O2 (stereo not shown) [Compound 5i, 6-Amino-4-(2-chlorophenyl)-3-methyl-2,4-dihydropyrano[2,3-c]pyrazole-5-carbonitrile] |  | 23.5 ± 3.2 |  |  | > 100 | > 100 |  |

Second part, led by results:

| IC50 (GSK3β) | EC50 (Nrf2) [µM] | Ki (GSK3β) [µM] | Compound | Percentage of protection against okadaic acid toxicity (SH-SY5Y cells [1]) | HepG2 LD50 (HepG2 cells) [µM] | SH-SY5Y LD50 (SH-SY5Y cells [2]) [µM] | Percentage of protection against R/O toxicity (SH-SY5Y cells [3]) [%] |
| --- | --- | --- | --- | --- | --- | --- | --- |
| 20.5 ± 8 µM | 5.38 ± 0.5 | 14.4 | Cc1[nH]nc2c1C(c1cccc(Cl)c1)C(C#N)=C(N)O2 (stereo not shown) [Compound 5j, 6-Amino-4-(3-chlorophenyl)-3-methyl-2,4-dihydropyrano[2,3-c]pyrazole-5-carbonitrile] |  | > 100 | > 100 |  |
| 6.29 ± 2.6 µM | 8.31 ± 1.5 | 4.41 | Cc1n[nH]c2c1C(c1ccc(Cl)cc1)C(C#N)=C(N)O2 (stereo not shown) [Compound 5k, 6-Amino-4-(4-chlorophenyl)-3-methyl-2,4-dihydropyrano[2,3-c]pyrazole-5-carbonitrile] |  | > 100 | > 100 |  |
| 3.9 µM and 3.89 µM | 11.3 ± 5.5 | 2.72 | Cc1[nH]nc2c1C(c1ccccc1[N+](=O)[O-])C(C#N)=C(N)O2 (stereo not shown) [Compound 5n, 6-Amino-3-methyl-4-(2-nitrophenyl)-2,4-dihydropyrano[2,3-c]pyrazole-5-carbonitrile] | 34.7% | > 100 | > 100 |  |
| 7.2 ± 1.6 µM | 18.9 ± 2.9 | 5.04 | Cc1[nH]nc2c1C(c1cccc([N+](=O)[O-])c1)C(C#N)=C(N)O2 (stereo not shown) [Compound 5o, 6-Amino-3-methyl-4-(3-nitrophenyl)-2,4-dihydropyrano[2,3-c]pyrazole-5-carbonitrile] | 48% | > 100 | > 100 |  |
| 16.3 ± 2.8 µM | 15 ± 4.3 | 11.4 | Cc1[nH]nc2c1C(c1ccc([N+](=O)[O-])cc1)C(C#N)=C(N)O2 (stereo not shown) [Compound 5p, 6-Amino-3-methyl-4-(4-nitrophenyl)-2,4-dihydropyrano[2,3-c]pyrazole-5-carbonitrile] |  | > 100 | > 100 |  |
| 14.8 ± 4.8 µM | 25.2 ± 2.4 | 10.4 | Cc1n[nH]c2c1C(c1ccco1)C(C#N)=C(N)O2 (stereo not shown) [Compound 5q, 6-Amino-4-(furan-2-yl)-3-methyl-2,4-dihydropyrano[2,3-c]pyrazole-5-carbonitrile] |  | > 100 | > 100 |  |
| > 30 µM | 17.6 ± 8.4 |  | Cc1n[nH]c2c1C(c1cccs1)C(C#N)=C(N)O2 (stereo not shown) [Compound 5r, 6-Amino-3-methyl-4-(thiophen-2-yl)-2,4-dihydropyrano[2,3-c]pyrazole-5-carbonitrile] |  | > 100 | > 100 |  |

Source: publication PMC5374710, “Discovery of the first dual GSK3β inhibitor/Nrf2 inducer. A new multitarget therapeutic strategy for Alzheimer’s disease” (Scientific Reports, 2017)
